# Starred links: 1 amine or outer side, 2 acyl side, 3 side chain; linkers in the order of their positions; H or OH if unused. Non-standard residues stand in square brackets, D forms with d. Residues, ends and D or L forms follow the SMILES beside them. Groups on a side chain read outwards from the residue. *: point of attachment. C18 diacid = O=C(O)CCCCCCCCCCCCCCCCC(=O)*; γGlu = O=C(O)[C@H](CCC(=O)[*:2])N[*:1]; AEEA = NCCOCCOCC(=O)O; Aib = CC(C)(N)C(=O)O
# Assays:
# human GLP-1 receptor [1] = molecular target: T1, human GLP-1 receptor (Homo sapiens, UniProt P43220); assay: Assay (II)(a) GLP-1 receptor binding, 125I-GLP-1 displacement SPA on BHK membranes; conditions: without presence of serum albumin; read-out: GLP-1R IC50 (nM) [Assay (II)(a)]
# T1 construct: expressed in transfected cells; host or cells: membranes of BHK cells (parent BHKTS13), clone FCW467-12A
# Experimental: The GLP-1 receptor (GLP-1R) binding is a measure of affinity of a compound for the human GLP-1 receptor. The receptor binding of each compound to the human GLP-1 receptor was measured in a displacement binding assay. In this type of assay a labelled ligand (in this case 125I-GLP-1) is bound to the receptor. Each derivative was added in a series of concentrations to isolated membranes containing the human GLP-1 receptor and displacement of the labelled ligand was monitored. The receptor binding was reported as the concentration at which half of the labelled ligand was displaced from the receptor, the IC50 value. In order to test the binding of the derivatives to albumin, the assay may be performed in a very low concentration of serum albumin (max. 0.001% final assay concentration) as well as in the presence of a (considerably) higher concentration of serum albumin (2.0% final assay concentration). An increase of the IC50 value, in the presence of serum albumin indicates an affinity to serum albumin and represents a method to predict a protracted pharmacokinetic profile of the test substance in animal models. The following chemicals were used in the assay: DMEM w/o phenol red (Gibco 11880-028), Pen/strep (Invitrogen 15140-122), G418 (Invitrogen 10131-027), 1 M Hepes (Gibco 15630), EDTA (Invitrogen 15575-038), PBS (Invitrogen 14190-094), fetal calf serum (Invitrogen 16140-071), EGTA, MgCl2 (Merck 1.05832.1000), Tween 20 (Amresco 0850C335), SPA particles (wheat germ agglutinin (WGA) SPA beads, Perkin Elmer RPNQ0001), [125I]-GLP-1]-(7-36)NH2 (produced in-house), OptiPlate™-96 (Perkin Elmer). Buffer 1 consisted of 20 mM Na-HEPES plus 10 mM EDTA and pH was adjusted to 7.4. Buffer 2 consisted of 20 mM Na-HEPES plus 0.1 mM EDTA and pH was adjusted to 7.4. Assay buffer consisted of 50 mM HEPES supplemented with 5 mM EGTA, 5 mM MgCl2, 0.005% Tween 20 and pH was adjusted to 7.4. The cells used in this assay (clone FCW467-12A) were BHK cells with BHKTS13 as a parent cell line. The cells express the human GLP-1 receptor. The cells were grown at 5% CO2 in DMEM, 10% fetal calf serum, 1% Pen/Strep (Penicillin/Streptomycin) and 1.0 mg/ml of the selection marker G418. To make a membrane preparation the cells were grown to approximately 80% confluence. The cells were washed twice in phosphate-buffered saline and harvested. The cells were pelleted using a brief centrifugation and the cell pellet was kept on ice. The cell pellet was homogenised with ULTRA-THURRAX dispersing instrument for 20-30 seconds in a suitable amount of buffer 1 (e.g., 10 ml). The homogenate was centrifuged for 15 minutes. The pellet was re-suspended (homogenised) in 10 ml buffer 2 and centrifuged. This step was repeated once more. The resulting pellet was re-suspended in buffer 2 and the protein concentration was determined. The membranes were aliquoted and stored at minus 80° C. • 1. For the receptor binding assay, 50 μl of the assay buffer was added to each well of an assay plate. • 2. Test compounds were serially diluted to give the following concentrations: 8×10EE-7 M, 8×10EE-8 M, 8×10EE-9 M, 8×10EE-10 M, 8×10EE-11 M, 8×10EE-12 M and 8×10EE-13 M. Twenty-five μl were added to appropriate wells in the assay plate. • 3. Cell membrane aliquots were thawed and diluted to their working concentration. Fifty μl were added to each well in the assay plate. • 4. WGA SPA beads were suspended in assay buffer at 20 mg/ml. The suspension was diluted to 10 mg/ml in assay buffer just prior to addition to the assay plate. Fifty μl were added to each well in the assay plate. • 5. The incubation was started by adding 25 μl of […] solution of [125I]-GLP-1]-(7-36)NH2 to each well of the assay plate. A 25 μl aliquot was reserved for measuring total counts/well. • 6. The assay plate was incubated for 2 h at 30° C. • 7. The assay plate was centrifuged for 10 min. • 8. The assay plate was read in a Perkin Elmer TopCount NXT instrument. […]
# human GLP-1 receptor [2] = molecular target: T1, human GLP-1 receptor; assay: Assay (I)(a) GLP-1 receptor activation, CRE luciferase reporter gene assay in BHK cells; type: cell-based; conditions: without presence of serum albumin; read-out: GLP-1R EC50 (pM) [Assay (I)(a)]
# Experimental: The purpose of this example was to test the activity or potency, of the glucagon derivatives of the invention, in vitro. The in vitro potency is the measure of human GLP-1 receptor (GLP-1R) or glucagon receptor (glucagonR) activation, respectively, in a whole cell assay. In vitro potency was determined by measuring the response of human GLP-1 or glucagon receptor, respectively, in a reporter gene assay. The assay was performed in a stably transfected BHK cell line that expresses either the human GLP-1 receptor or the human glucagon receptor and contains the DNA for the cAMP response element (CRE) coupled to a promoter and the gene for firefly luciferase (CRE luciferase). […] When assay incubation was completed, the luciferase substrate (luciferin) was added and the enzyme converted luciferin to oxyluciferin and produces bioluminescence. The luminescence was measured as the readout for the assay. The cells used in this assay (clone FCW467-12A/KZ10-1) were BHK cells with BHKTS13 as a parent cell line. The cells were derived from a clone (FCW467-12A) that expresses the human GLP-1 receptor and were established by further transfection with CRE luciferase to obtain the current clone. The cells were cultured at 5% CO2 in DMEM medium with 10% FBS, 1×GlutaMAX, 1 mg/ml G418, 240 nM MTX (methotrexate) and 1% pen/strep (penicillin/streptomycin). They were aliquoted and stored in liquid nitrogen. Before each assay, an aliquot was taken up and washed three times in PBS before being suspended at the desired concentration in assay medium. For 96-well plates the suspension was made to give a final concentration of 5×10EE3 cells/well. The following chemicals were used in the assay: Pluronic F-68 (10%) (Gibco 2404), ovalbumin (Sigma A5503), DMEM w/o phenol red (Gibco 11880-028), 1 M Hepes (Gibco 15630), Glutamax 100× (Gibco 35050) and steadylite plus (PerkinElmer 6016757). Assay Medium consisted of DMEM w/o phenol red, 10 mM Hepes, 1× GlutaMAX, 2% Ovalbumin and 0.2% Pluronic F-68. Cell stocks were thawed in a 37° C. water bath. Cells were washed three times in PBS. The cells were counted and adjusted to 5×10EE3 cells/50 μl (1×10EE5 cells/ml) in Assay Medium. A 50 μl aliquot of cells was transferred to each well in the assay plate. Stocks of the test compounds and reference compounds were diluted to a concentration of […] in Assay Medium. Compounds were diluted 10-fold to give the following concentrations: 2×10EE-6 M, 2×10EE-7 M, 2×10EE-8 M; 2×10EE-9 M, 2×10EE-10 M, 2×10EE-11 M, 2×10EE-12 M and 2×10EE-13 M. For each compound a blank assay medium control was also included. A 50 μl aliquot of compound or blank was transferred from the dilution plate to the assay plate. Compounds were tested at the following final concentrations: 1×10EE-6 M, 1×10EE-7 M, 1×10EE-8 M; 1×10EE-9 M, 1×10EE-10 M, 1×10EE-11 M and 1×10EE-12 M and 1×10EE-13 M. The assay plate was incubated for 3 h in a 5% CO2 incubator at 37° C. The assay plate was removed from the incubator and allowed to stand at room temperature for 15 min. A 100 μl aliquot of steadylite plus reagent was added to each well of the assay plate (reagent is light sensitive). Each assay plate was covered with aluminum foil to protect it from light and shaken for 30 min at room temperature. Each assay plate was read in a Perkin Elmer TopCount NXT instrument. The data from the TopCount instrument was transferred to GraphPad Prism software. The software performed a non-linear regression (log(agonist) vs response-Variable slope (four parameter)). EC50 values were calculated by the software and reported in pM.
# T1 sequence (P43220 24-463): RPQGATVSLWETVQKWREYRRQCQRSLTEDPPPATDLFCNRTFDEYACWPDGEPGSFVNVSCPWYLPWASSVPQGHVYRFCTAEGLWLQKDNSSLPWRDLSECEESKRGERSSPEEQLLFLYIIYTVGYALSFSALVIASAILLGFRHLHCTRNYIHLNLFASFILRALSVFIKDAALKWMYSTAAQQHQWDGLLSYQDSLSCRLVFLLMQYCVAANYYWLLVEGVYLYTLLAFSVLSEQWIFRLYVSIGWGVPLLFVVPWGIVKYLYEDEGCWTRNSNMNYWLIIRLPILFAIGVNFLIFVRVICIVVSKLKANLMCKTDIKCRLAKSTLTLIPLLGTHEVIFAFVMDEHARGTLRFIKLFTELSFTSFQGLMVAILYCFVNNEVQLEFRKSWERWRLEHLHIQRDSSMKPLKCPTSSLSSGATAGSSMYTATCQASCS
IC50 (human GLP-1 receptor [1]),EC50 (human GLP-1 receptor [2]),Structure (SMILES)
0.1 nM,–,"CC[C@H](C)[C@H](NC(=O)[C@H](CC(C)C)NC(=O)[C@H](Cc1c[nH]c2ccccc12)NC(=O)[C@H](CCC(N)=O)NC(=O)[C@@H](NC(=O)[C@H](Cc1ccccc1)NC(=O)[C@H](CC(=O)O)NC(=O)[C@H](CCC(N)=O)NC(=O)[C@H](C)NC(=O)[C@H](CCCNC(=N)N)NC(=O)[C@H](CCCNC(=N)N)NC(=O)[C@H](C)NC(=O)[C@H](CC(=O)O)NC(=O)[C@H](CC(C)C)NC(=O)[C@H](Cc1ccc(O)cc1)NC(=O)[C@H](CCCCN)NC(=O)[C@H](CO)NC(=O)[C@@H](NC(=O)[C@H](CC(=O)O)NC(=O)[C@H](CO)NC(=O)[C@@H](NC(=O)[C@H](Cc1ccccc1)NC(=O)[C@@H](NC(=O)CNC(=O)[C@H](CCC(N)=O)NC(=O)C(C)(C)NC(=O)[C@@H](N)Cc1c[nH]cn1)[C@@H](C)O)[C@@H](C)O)C(C)C)C(C)C)C(=O)N[C@@H](CCCCNC(=O)CC[C@H](NC(=O)COCCOCCNC(=O)COCCOCCNC(=O)CC[C@H](NC(=O)CC[C@H](NC(=O)CCCCCCCCCCCCCCCCC(=O)O)C(=O)O)C(=O)O)C(=O)O)C(=O)N[C@H](C(N)=O)[C@@H](C)O [Chem. 39, N^ε28-[(4S)-4-carboxy-4-[[2-[2-[2-[[2-[2-[2-[[(4S)-4-carboxy-4-[[(4S)-4-carboxy-4-(17-carboxyheptadecanoylamino)butanoyl]amino]butanoyl]amino]ethoxy]ethoxy]acetyl]amino]ethoxy]ethoxy]acetyl]amino]butanoyl]-[Aib2,Val10,Ala16,Ile27,Lys28]-Glucagon amide] (H-H[Aib]QGTFTSDVSKYLDARRAQDFVQWLIK([γGlu-AEEA-AEEA-γGlu-γGlu-C18 diacid])T-NH2; N-terminus assumed)"
–,3 pM,"CC[C@H](C)[C@H](NC(=O)[C@H](CC(C)C)NC(=O)[C@H](Cc1c[nH]c2ccccc12)NC(=O)[C@H](CCC(N)=O)NC(=O)[C@@H](NC(=O)[C@H](Cc1ccccc1)NC(=O)[C@H](CC(=O)O)NC(=O)[C@H](CCC(N)=O)NC(=O)[C@H](C)NC(=O)[C@H](CCCNC(=N)N)NC(=O)[C@H](CCCNC(=N)N)NC(=O)[C@@H](NC(=O)[C@H](CC(=O)O)NC(=O)[C@H](CC(C)C)NC(=O)[C@H](Cc1ccc(O)cc1)NC(=O)[C@H](CCCCN)NC(=O)[C@H](CO)NC(=O)[C@H](CC(C)C)NC(=O)[C@H](CC(=O)O)NC(=O)[C@H](CO)NC(=O)[C@@H](NC(=O)[C@H](Cc1ccccc1)NC(=O)[C@@H](NC(=O)CNC(=O)[C@H](CCC(N)=O)NC(=O)C(C)(C)NC(=O)[C@@H](N)Cc1c[nH]cn1)[C@@H](C)O)[C@@H](C)O)C(C)C)C(C)C)C(=O)N[C@@H](CCCCNC(=O)CC[C@H](NC(=O)COCCOCCNC(=O)COCCOCCNC(=O)CC[C@H](NC(=O)CC[C@H](NC(=O)CCCCCCCCCCCCCCCCC(=O)O)C(=O)O)C(=O)O)C(=O)O)C(=O)N[C@H](C(N)=O)[C@@H](C)O [Chem. 40, N^ε28-[(4S)-4-carboxy-4-[[2-[2-[2-[[2-[2-[2-[[(4S)-4-carboxy-4-[[(4S)-4-carboxy-4-(17-carboxyheptadecanoylamino)butanoyl]amino]butanoyl]amino]ethoxy]ethoxy]acetyl]amino]ethoxy]ethoxy]acetyl]amino]butanoyl]-[Aib2,Leu10,Val16,Ile27,Lys28]-Glucagon amide] (H-H[Aib]QGTFTSDLSKYLDVRRAQDFVQWLIK([γGlu-AEEA-AEEA-γGlu-γGlu-C18 diacid])T-NH2; N-terminus assumed)"
